Values quoted from earlier work, collected in article PMC3345309 (Hepatology (Baltimore, Md.), 2012).

How the values were obtained:
[1] = system: HCV Renilla reporter virus; details: ref [18]
[2] = system: NS5A-augmented HCV IRES-mediated translation; details: ref [18]

Structure (SMILES): O=c1c(O)c(-c2ccc(O)c(O)c2)oc2cc(O)cc(O)c12 [Quercetin]
- effect on virus production [1]: blocked
- effect on NS5A-augmented IRES-mediated translation [2]: blocked
